These results are taken from patent publication US20230255953A1, “USE OF ROLUPERIDONE IN PREVENTING RELAPSE IN SCHIZOPHRENIA PATIENTS” (Minerva Neurosciences, Inc., priority 2022, published 2023).

In one data set the target is T1, α1A-adrenergic (Homo sapiens, UniProt P35348).
T1 sequence (P35348 1-466): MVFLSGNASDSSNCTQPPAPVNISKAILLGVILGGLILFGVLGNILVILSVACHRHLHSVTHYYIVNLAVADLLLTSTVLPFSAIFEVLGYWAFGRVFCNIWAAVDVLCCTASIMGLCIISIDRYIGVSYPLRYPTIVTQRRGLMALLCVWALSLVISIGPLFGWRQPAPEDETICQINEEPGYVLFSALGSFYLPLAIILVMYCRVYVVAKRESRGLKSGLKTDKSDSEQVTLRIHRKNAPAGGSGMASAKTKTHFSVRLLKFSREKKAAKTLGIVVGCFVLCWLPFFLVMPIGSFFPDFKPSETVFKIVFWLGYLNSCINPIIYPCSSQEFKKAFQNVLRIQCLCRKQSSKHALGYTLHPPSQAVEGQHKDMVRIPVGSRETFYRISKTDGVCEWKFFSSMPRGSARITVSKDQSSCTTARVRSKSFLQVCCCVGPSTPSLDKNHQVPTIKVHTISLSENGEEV
The settings on record: background statement; cited from earlier work.

Data set [1] relates to patients with negative symptoms of schizophrenia. In words: Study #1 (MIN-101C03): safety and tolerability (TEAEs, QTcF). In kind it is in vivo, human. To be noted: for Patients with QTcF prolongation >500 msec and change from Baseline in QTcF >60 msec: DB period. An excerpt: Phase 2b Study #1 (also referred to herein as “MIN-101C03”) was a Phase 2b, double-blind (“DB”), placebo-controlled, randomized, multicenter 12-week study to evaluate the efficacy, safety, and tolerability of Roluperidone in patients ≥18 years to ≤60 years with negative symptoms of schizophrenia, followed by a 24-week open-label (“OL”) extension. The primary objective of the study was to evaluate the efficacy of Roluperidone compared to placebo in improving the negative symptoms of schizophrenia as measured by the change from Baseline in the PANSS negative factor score of the PSM (“PANSS PSM”) over 12 weeks of treatment.
The study consisted of a pretreatment screening period of up to 28 days (including washout), a 12-week, DB, placebo-controlled period, and a 24-week OL period. Eligible patients (who were symptomatically stable for at least 3 months and had scores of at least 20 on the PANSS negative subscale score) were randomized in a 1:1:1 ratio to receive oral Roluperidone (a modified-release, “MR”, formulation) 32 mg QD, Roluperidone 64 mg QD, or placebo for 12 weeks. […] During the 24-week, OL treatment extension period, patients who were initially randomized to Roluperidone 32 mg or 64 mg continued on the same dose, while patients who were initially randomized to placebo crossed over to Roluperidone 32 mg or 64 mg in a 1:1 ratio.
Clinically significant QTcF prolongation >500 msec and change from Baseline in QTcF>60 msec were reported in 2 patients of the 64 mg Roluperidone group, and in no patients in the 32 mg Roluperidone group or in the placebo group during the DB period of the study. The mean changes across all vital sign parameters were small from Baseline to the respective study visits in the DB period of the study.

As to “1H-Isoindol-1-one,2-[ [1-[2-(4-fluorophenyl)-2-oxoethyl]-4-piperidinyl]methyl]-2,3-dihydro-, hydrochloride, hydrate (1:1:2) [Roluperidone]”, the Antagonistic activity entry at α1A-adrenergic is on record as “antagonistic activities”. Moreover, the “Patients with QTcF prolongation >500 msec and change from Baseline in QTcF >60 msec” value in data set [1] (32 mg) is given as “no patients”; in data set [1] (64 mg), 2 patients. For the same substance, the “Tolerability (TEAEs, SAEs)” value in data set [1] (32 and 64 mg, up to 36 weeks of treatment) was “generally well tolerated”. The “QTcF prolongation >450 msec and QTcF increases relative to baseline of ≥30 msec” value in data set [1] (Roluperidone groups) is recorded as “dose-dependent manner”.
